From patent US6831199B1, “Pyrimidine compounds and derivatives thereof” (G. D. Searle & Co., priority 1995, dated 2004)
Where a name gives a salt, the structure may show the parent alone.

Tests used:
[1] = biological target: T1, Human fibrinogen receptor (αIIbβ3) (Homo sapiens, UniProt P05106+P08514); test: Purified IIb/IIIa receptor assay (solid phase receptor assay, competition with biotinylated vitronectin); type: binding; details: read-out: IIb/IIIa IC50
T1 construct: Human fibrinogen receptor (αIIbβ3) was purified from outdated platelets; from tissue; host or cells: outdated human platelets
Outline: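 Purified platelet αIIbβ3 coated overnight at 4 °C in TBS with 1.0 mM Ca/Mg/Mn, pH 7.4, then BSA-blocked. Compounds (top 1.0×10^−4 M) competed with 1 nM biotinylated vitronectin for 2 h at room temperature. Bound label detected by HRP anti-biotin, A450; values normalized to no-competitor controls, four-parameter fit.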

[2] = biological target: T2, Human vitronectin receptor (αvβ3) (Homo sapiens, UniProt P05106+P06756); test: Vitronectin adhesion assay (solid phase receptor assay, competition with biotinylated vitronectin); type: binding; details: read-out: AvB3 IC50
T2 construct: Human vitronectin receptor (αvβ3) was purified from human placenta; from tissue; host or cells: human placenta
Outline: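 Purified human αvβ3 coated overnight at 4 °C in TBS with 1.0 mM Ca++, Mg++, Mn++, pH 7.4; compounds (top final 1.0×10^−4 M) competed with 1 nM biotinylated vitronectin for 2 h at room temperature. Bound ligand detected by HRP anti-biotin/OPD at A450; values normalized to no-competitor controls, four-parameter curve fit.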

Compound	IC50 [1] [nM]	IC50 [2] [nM]
CCOc1cc(OCC)cc(C(CC(=O)O)NC(=O)CNC(=O)c2cccc(NC(=N)N)c2)c1 (stereo not drawn) [Example 249, β-[[2-[[[3-[(aminoiminomethyl)amino]phenyl]carbonyl]amino]acetyl]amino]-3,5-diethoxybenzenepropanoic acid, trifluoroacetate salt]	244	5.31
N=C(N)Nc1cccc(C(=O)NCC(=O)NC(CC(=O)O)c2cncc(Br)c2)c1 (racemic) [Example 235, (±)β-[[2-[[[3-[(aminoiminomethyl)amino]phenyl]carbonyl]amino]acetyl]amino]-5-bromopyridine-3-propanoic acid, bis(trifluoroacetate)salt, monohydrate]	29.9	0.54
C/N=C(/Nc1cccc(C(=O)NCC(=O)NC(CC(=O)O)c2ccc(F)cc2)c1)NC(C)C (racemic) [Example 298, (±)4-fluoro-β-[[2-[[[3-[[[(1-methylethyl)amino](methylimino)methyl]amino]phenyl]carbonyl]amino]acetyl]amino]benzenepropanoic acid, trifluoroacetate salt]	5560	252
CNC(=NC(N)=O)Nc1cccc(C(=O)NCC(=O)NC(CC(=O)O)c2cc(Cl)cc(Cl)c2)c1 (racemic) [Example 201, (±)β-[[2-[[[3-[[[(aminocarbonyl)imino)methylamino)methyl]amino]phenyl]carbonyl]amino]acetyl]amino]-3,5-dichlorobenzenepropanoic acid]	10800	58.1
N=C(N)Nc1cccc(C(=O)NCC(=O)NC(CC(=O)O)c2ccc3c(c2)Cc2ccccc2-3)c1 (racemic) [Example 224, (±)β-[[2-[[[3-[(aminoiminomethyl)amino]phenyl]carbonyl]amino]acetyl]amino]-9H-fluorene-2-propanoic acid, trifluoroacetate salt]	25.9	0.71
N=C(N)Nc1cccc(C(=O)NCC(=O)NC(CC(=O)O)c2ccc(Cl)s2)c1 (stereo not drawn) [251(C), β-[[2-[[[3-[(aminoiminomethyl)amino]phenyl]carbonyl]amino]acetyl]amino]-5-chlorothiophene-2-propanoic acid, trifluoroacetate salt]	124	0.76
CCOC(=O)CC(NC(=O)CNC(=O)c1cccc(NC(=O)NCc2ccccc2)c1)c1ccc2c(c1)OCO2 (stereo not drawn) [Example 121, ethyl β-[[2-[[[3-[[[(phenylmethyl)amino]carbonyl]amino]phenyl]carbonyl]amino]acetyl]amino]-1,3-benzodioxole-5-propanoate]	> 100000	2840
O=C(O)CC(NC(=O)CNC(=O)c1cccc(NC2=NCCCC2)c1)c1cc(Cl)cc(Cl)c1 (racemic) [Example 205, (±)3,5-dichloro-β-[[2-[[[3-[(2,3,4,5-tetrahydropyridin-6-yl)amino]phenyl]carbonyl]amino]acetyl]amino]benzenepropanoic acid, trifluoroacetate salt]	1240	1.68
ethyl 3S-[[2-[[[3-[[(cyanoimino)(methylamino)methyl]amino]phenyl]carbonyl]amino]acetyl]amino]-4-pentynoate [Example 140]	> 100000	4590
N=C(N)Nc1cccc(C(=O)NC2(C(=O)NC(CC(=O)O)c3cccnc3)CC2)c1 (stereo not drawn) [Example 19, β-[[1-[[[3-[(aminoiminomethyl)amino]phenyl]carbonyl]amino]cycloprop-1-yl]carbonyl]amino]pyridine-3-propanoic acid, bis(trifluoroacetate)salt]	72000	303
N=C(N)Nc1cccc(C(=O)NCC(=O)NC(CC(=O)O)c2cc(Br)cc(Cl)c2O)c1 (stereo not drawn) [Example 265, β-[[2-[[[3-[(aminoiminomethyl)amino]phenyl]carbonyl]amino]acetyl]amino]-5-bromo-3-chloro-2-hydroxybenzenepropanoic acid, trifluoroacetate salt]	706	6.19
